Measurements from patent publication US9839642B2, “Beta-tetrazolyl-propionic acids as metallo-beta-lactamase inhibitors” (priority 2014, dated 2017).
Read-outs that look alike come from different tables or passages of the source.

What was measured:
[1] = target: IMP-1 (Serratia marcescens, UniProt P52699); assay: Enzyme activity: determination of IC50, fluorescence assay with CCF2-FA substrate; assay type: biochemical; conditions: enzyme 2 pM, CCF2-FA 1.25 μM, 2 hours at 25° C.; read-out: IMP1 IC50
How it was run: (§1)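 In pH 7 phosphate buffer (100 mM) with 10 μM ZnSO4 and 0.005% Tween-20, CCF2-FA substrate (1.25 μM final) was hydrolysed for 2 h at 25 °C by NDM-1, IMP-1 or VIM-1 at 1, 2 or 30 pM in the presence of inhibitor at 20–0.00063 μM. Emission 460 nm/excitation 405 nm; 4-parameter curve fit gave IC50.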

[2] = target: NDM-1 (Klebsiella pneumoniae, UniProt C7C422); assay: as above; assay type: biochemical; conditions: CCF2-FA 1.25 μM, 2 hours at 25° C.
How it was run: as §1

[3] = target: VIM-1 (Pseudomonas aeruginosa, UniProt A0A0F7KYQ8); assay: as above; assay type: biochemical; conditions: enzyme 30 pM, CCF2-FA 1.25 μM, 2 hours at 25° C.; read-out: VIM1 IC50
How it was run: as §1

[4] = test system: Escherichia coli expressing NDM-1 (CLB30005); assay: Antibiotic potentiation activity: synergistic concentration (MITC95) with imipenem, growth by OD600; assay type: cell-based; conditions: 95% inhibition of bacterial growth, strain CLB30005
How it was run: (§2)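 MITC95 = lowest inhibitor concentration giving 95% growth inhibition, read by absorbance after 22–24 h at 35° C. Compound range 200 μM to 0.195 μM, imipenem fixed at 1 or 4 μg/ml, bacteria in 1.1×CAMHB from saline suspension diluted 1:100.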

[5] = test system: Klebsiella pneumoniae expressing VIM-1 (IHMA599644); assay: as above; assay type: cell-based; conditions: 95% inhibition of bacterial growth, strain IHMA599644
How it was run: as §2

[6] = test system: Serratia marcescens expressing IMP-1 (CL5741); assay: as above; assay type: cell-based; conditions: 95% inhibition of bacterial growth, strain CL5741
How it was run: as §2

[7] = enzyme 1 pM, read-out: NDM1 IC50

NDM-1, sequence (C7C422 29-270, looked up, species assumed): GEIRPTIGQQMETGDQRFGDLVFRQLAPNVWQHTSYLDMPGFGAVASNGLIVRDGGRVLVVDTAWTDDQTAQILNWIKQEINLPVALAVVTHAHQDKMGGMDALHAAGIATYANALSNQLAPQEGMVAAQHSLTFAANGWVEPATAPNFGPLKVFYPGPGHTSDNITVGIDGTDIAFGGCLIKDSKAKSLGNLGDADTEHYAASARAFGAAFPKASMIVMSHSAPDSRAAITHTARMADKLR
IMP-1, sequence (P52699 19-246, looked up, species assumed): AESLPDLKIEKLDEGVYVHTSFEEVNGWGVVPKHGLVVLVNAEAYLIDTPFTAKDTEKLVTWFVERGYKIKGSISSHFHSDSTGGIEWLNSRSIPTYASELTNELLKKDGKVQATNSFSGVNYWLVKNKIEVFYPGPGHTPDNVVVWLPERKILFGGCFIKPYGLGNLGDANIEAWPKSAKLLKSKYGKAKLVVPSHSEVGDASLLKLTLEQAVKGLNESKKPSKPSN

SMILES	IC50 [1]	IC50 [2, 7]	IC50 [3]	NDM1 EC30005 MITC95 [4]	VIM1 KP599644 MITC95 [5]	IMP1 SM5741 MITC95 [6]	IC50 ([2]; NDM1 IC50, enzyme 1 pM)
O=C(O)[C@@H](CCCCO)[C@H](Cc1ccccc1)c1nnn[nH]1 [Example 32, (S)-6-hydroxy-2-((S)-2-phenyl-1-(1H-tetrazol-5-yl)ethyl)hexanoic acid]	5000 nM	720 nM	240 nM	75 µM	200 µM	>200 µM	
N#CCCCC[C@H](C(=O)O)[C@H](Cc1ccccc1)c1nnn[nH]1 [Example 33, (S)-6-cyano-2-((S)-2-phenyl-1-(1H-tetrazol-5-yl)ethyl)hexanoic acid]	2100 nM	390 nM	110 nM	75 µM	>200 µM	50 µM	
O=C(O)CCCC[C@H](C(=O)O)[C@H](Cc1ccccc1)c1nnn[nH]1 [Example 34, (S)-2-((S)-2-phenyl-1-(1H-tetrazol-5-yl)ethyl)heptanedioic acid]	1500 nM	200 nM	40 nM	25 µM	200 µM	200 µM	
NC(=O)CCCC[C@H](C(=O)O)[C@H](Cc1ccccc1)c1nnn[nH]1 [Example 35, (S)-7-amino-7-oxo-2-((S)-2-phenyl-1-(1H-tetrazol-5-yl)ethyl)heptanoic acid]	3100 nM	1400 nM	210 nM	100 µM	>200 µM	>200 µM	
O=C(O)[C@@H](CCCC1CCNCC1)[C@H](Cc1ccccc1)c1nnn[nH]1 [Example 36, (S)-2-((S)-2-phenyl-1-(1H-tetrazol-5-yl)ethyl)-5-(piperidin-4-yl)pentanoic acid]	2000 nM	30 nM	21 nM	60 µM	100 µM	108 µM	
O=C(O)[C@@H](CCCCc1ccccc1)[C@H](Cc1ccc2c(c1)OCO2)c1nnn[nH]1 [Example 37, (2S)-2-[(1S)-2-(1,3-benzodioxol-5-yl)-1-(2H-tetrazol-5-yl)ethyl]-6-phenylhexanoic acid]	120 nM	27 nM	10 nM	200 µM	>200 µM	106 µM	
CC(C)CCCCC[C@H](C(=O)O)[C@H](Cc1ccc2c(c1)OCO2)c1nnn[nH]1 [Example 38, (2S)-2-[(1S)-2-(1,3-benzodioxol-5-yl)-1-(2H-tetrazol-5-yl)ethyl]-8-methylnonanoic acid]	49 nM	12 nM	5.5 nM	100 µM	>200 µM	31 µM	
CCCCC[C@H](C(=O)O)[C@H](Cc1ccc2c(c1)OCO2)c1nnn[nH]1 [Example 39, (2S)-2-[(1S)-2-(1,3-benzodioxol-5-yl)-1-(1H-tetrazol-5-yl)ethyl]heptanoic acid]	210 nM	86 nM	11 nM	75 µM	100 µM	>200 µM	
CCC[C@H](C(=O)O)[C@H](Cc1ccc(C#N)cc1)c1nn[nH]n1 [Example 40, (S)-2-((S)-2-(4-cyanophenyl)-1-(2H-tetrazol-5-yl)ethyl)pentanoic acid]	2500 nM	160 nM	4.3 nM	8.3 µM	25 µM	100 µM	
CCC[C@H](C(=O)O)[C@H](Cc1ccc(C(N)=O)cc1)c1nn[nH]n1 [Example 45, (S)-2-((S)-2-(4-carbamoylphenyl)-1-(2H-tetrazol-5-yl)ethyl)pentanoic acid]	850 nM	93 nM	3.3 nM	4.2 µM	25 µM	37.5 µM	
CCC[C@H](C(=O)O)[C@H](Cc1ccc(S(C)(=O)=O)cc1)c1nn[nH]n1 [Example 49, (S)-2-((S)-2-(4-(methylsulfonyl)phenyl)-1-(2H-tetrazol-5-yl)ethyl)pentanoic acid]	720 nM	69 nM	7.6 nM	6.2 µM	50 µM	37.5 µM	
CC[C@H](C)[C@H](C(=O)O)[C@H](Cc1ccc(-c2ccc(-c3nnn[nH]3)cc2)cc1)c1nn[nH]n1 [Example 58, (2S,3S)-2-((S)-2-(4′-(1H-tetrazol-5-yl)-[1,1′-biphenyl]-4-yl)-1-(2H-tetrazol-5-yl)ethyl)-3-methylpentanoic acid]	1.4 nM	< 0.64 nM	5.1 nM	18.8 µM	200 µM	12.9 µM	
CC(C)[C@H](C(=O)O)[C@H](Cc1ccc(C2=CCNCC2)cc1)c1nnn[nH]1 [Example 59, (2S,3S)-2-isopropyl-4-(4-(1,2,3,6-tetrahydropyridin-4-yl)phenyl)-3-(1H-tetrazol-5-yl)butanoic acid]	55 nM		10 nM	12.5 µM	150 µM	56.2 µM	9 nM
CCC[C@H](C(=O)O)[C@H](Cc1ccc(Cl)nc1)c1nnn[nH]1 [Example 82, (S)-2-((S)-2-(6-chloropyridin-3-yl)-1-(1H-tetrazol-5-yl)ethyl)pentanoic acid]	4600 nM	240 nM	5.7 nM	6.2 µM	25 µM	200 µM	
CCC[C@H](C(=O)O)[C@H](Cc1ccc(Cl)cn1)c1nnn[nH]1 [Example 83, (S)-2-((S)-2-(5-chloropyridin-2-yl)-1-(1H-tetrazol-5-yl)ethyl)pentanoic acid]	> 20000 nM	880 nM	71 nM	8.3 µM	100 µM	>200 µM	
CCC[C@H](C(=O)O)[C@H](Cc1ccc(-c2ccc3c(c2)CNC3)nc1)c1nnn[nH]1 [Example 95, 5-(5-((2S,3S)-3-carboxy-2-(1H-tetrazol-5-yl)hexyl)pyridin-2-yl)isoindolin-2-ium]	2500 nM	160 nM	6.5 nM	3.1 µM	12.5 µM	50 µM	
CCC[C@H](C(=O)O)[C@H](Cc1ccc(Br)nc1)c1nnn[nH]1 [Example 143]	1700 nM	53 nM	2.6 nM	12.5 µM	100 µM	>200 µM	
CCC[C@H](C(=O)O)[C@H](Cc1ccc(N2CCNCC2)nc1)c1nnn[nH]1 [Example 145, (S)-2-((S)-2-(6-(piperazin-1-yl)pyridin-3-yl)-1-(1H-tetrazol-5-yl)ethyl)pentanoic acid]	12000 nM		18 nM	6.2 µM	75 µM	200 µM	700 nM
